Paper PMC6227957, “Peptides derived from cadherin juxtamembrane region inhibit platelet function” (Royal Society Open Science, 2018)

Key:
washed human platelets [1] = experiment: Platelet ATP secretion, luminescence-based assay; format: cell-based; details: for Effect on TRAP-induced platelet ATP secretion, alanine scan and control peptides of KEPLLP: 12.5 µM peptide, n = 4 donors, figure 5a,b; for Platelet ATP secretion induced by peptide alone (basal, no agonist) / Effect on TRAP-induced platelet ATP secretion: 50 µM peptide, washed human platelets; for Platelet ATP secretion induced by peptide alone (basal, no agonist): 12 min at 37°C, without TRAP, n = 6, figure 2; for Effect on TRAP-induced platelet ATP secretion: preincubated 12 min at 37°C, then 4 µM TRAP for 3 min, luminescence arb. units, figures 2, 3c,d
Protocol: Washed platelets (WPs) were prepared from blood samples collected from healthy donors who were free of medications known to affect platelet function for at least 10 days, as previously described. Written, informed consent was obtained from all participants in line with the Declaration of Helsinki. In brief, venous blood was drawn into 15% (v/v) of acid-citrate-dextrose (ACD) anticoagulant (38 mM citric acid anhydrous, 75 mM sodium citrate, 124 mM dextrose). Blood was centrifuged at 150g for 10 min and the platelet-rich plasma (PRP) was collected. PRP was further centrifuged at 720g for 10 min in the presence of 1 µM prostaglandin E1 (PGE1). The platelet pellet was resuspended in buffer A (6 mM dextrose, 130 mM NaCl, 9 mM NaHCO3, 10 mM sodium citrate, 10 mM Tris base, 3 mM KCl, 0.81 mM KH2PO4 and 0.9 mM MgCl2·6H2O, pH 7.4). The washed platelet count was adjusted to 3 × 10^8 platelets ml^−1 and supplemented with 1.8 mM CaCl2 immediately prior to use.
ATP secretion was measured using a luminescence-based assay, as previously described. Peptides, buffer or vehicle control, in a final volume of 10 µl, were dispensed into white 96-well plates. To this, 70 µl of WPs were gently added. Platelets were incubated with peptides at 37°C for 12 min (under shaking) in the Perkin Elmer 1420 96-well plate reader. Platelet agonist (TRAP; 4 µM; 10 µl) was then added to induce platelet ATP secretion. The suspension (peptide + platelets + agonist) was incubated for 3 min at 37°C with constant shaking. Finally, 10 µl of ATP detecting reagent chronolume (Labmedics, UK) was dispensed into each well and luminescence was measured using the Perkin Elmer 1420 96-well plate reader. Platelet ATP secretion response to peptides was measured in the presence and absence of agonist. Data were expressed as the amount of ATP secretion in luminescence arbitrary units (arb. units). Data are represented as the mean ± standard error mean (s.e.m.) of at least four independent donors.

washed human platelets [2] = experiment: Platelet ATP secretion, luminescence-based assay; format: cell-based; details: TRAP 0.25 to 16 µM for 3 min at 37°C; n = 4 donors; figure S1

SFLLRN [TRAP, reference compound] was tested. Which “ATP secretion response at 4 µM TRAP relative to the maximal response” value (washed human platelets [1]; 4 µM TRAP, figure S1) did it give?
The value was “approximately 80%”.

And the “TRAP concentration at which ATP secretion is maximal” value (washed human platelets [2])?
Its value is 16 µM.

With “PLLPKE [randomly scrambled peptide of KEPLLP, palmitoylated and amidated]” as the compound, how does the “Effect on TRAP-induced platelet ATP secretion, alanine scan and control peptides of KEPLLP” value (from here on “Effect … of KEPLLP”) (washed human platelets [1]; 4 µM TRAP) read?
Its value is “failed to inhibit”.

Which “Effect … of KEPLLP” value (washed human platelets [1]; 4 µM TRAP) does the source give for “KEPLAP [KEPLLP with one leucine replaced with alanine, palmitoylated and amidated]” here?
Its value is “loss of peptide activity”.

For “EKPLLP [N-terminus reverse charge peptide of KEPLLP, palmitoylated and amidated]”, which “Effect … of KEPLLP” value (washed human platelets [1]; 4 µM TRAP) is on record?
The value was “retained partial inhibitory activity”.

How did the “Effect … of KEPLLP” value (washed human platelets [1]; 4 µM TRAP) turn out when “EEPLLP [KEPLLP with lysine replaced with glutamic acid, palmitoylated and amidated]” was run?
The value was “loss of inhibitory effect”.

With “KEPLLP [short motif truncated from E-cad 2, N-terminally palmitoylated and C-terminally amidated]” as the compound, how does the “Effect of truncated E-cad 2 peptides on TRAP-induced platelet ATP secretion” value (washed human platelets [1]; 4 µM TRAP, n = 6 donors, figure 4a) read?
Its value is “most potent inhibitor”.

What about the “Lowest peptide concentration that significantly inhibited TRAP-induced platelet ATP secretion” value (washed human platelets [1]; dose-response study, 4 µM TRAP, n = 4, figure 4b) of the same compound?
The value was 12.5 µM.

Which “Effect … of KEPLLP” value (washed human platelets [1]; 4 µM TRAP) does the source give for “KEPAAP [KEPLLP with LL replaced with AA, palmitoylated and amidated]” here?
Its value is “loss of peptide activity”.

With `CCCCCCCCCCCCCCCC(=O)NCCCOCCOCCOCCCNC(=O)CCC(N)=O` [palmitic acid connected to a Ttds linker, reference compound] as the compound, how does the “Platelet ATP secretion induced by peptide alone (basal, no agonist)” value (washed human platelets [1]) read?
Its value is “no effect”.

What about the “Effect on TRAP-induced platelet ATP secretion” value (washed human platelets [1]; n = 6 donors) of the same compound?
Its value is “no effect”.

For “KEPLLP [Non-palmitoylated KEPLLP, KEPLLP peptide with no palmitoylation]”, which “Effect of peptide with no palmitoylation on TRAP-induced platelet ATP secretion” value (washed human platelets [1]; 50 µM peptide for 12 min at 37°C before 4 µM TRAP, n = 4, figure S4) is on record?
The value was “failed to inhibit”.

For `CCCCCCCCCCCCCCCC(=O)O` [palmitic acid, reference compound], which “Platelet ATP secretion induced by peptide alone (basal, no agonist)” value (washed human platelets [1]) is on record?
The value was “no effect”.

What about the “Effect on TRAP-induced platelet ATP secretion” value (washed human platelets [1]; n = 6 donors) of the same compound?
Its value is “no effect”.
